Experiments:
[1] = neonatal jaundice; in words; cited from earlier work
[2] = Toxicity: perished animals/tested animals; type: in vivo
Text: Despite its disadvantageous properties, phenobarbital is widely used in the treatment of neonatal jaundice. In order to enable a better comparison, Table 8 indicates the respective dosages in which phenobarbital causes lethal respiration paralysis, while the compounds according to the invention are completely innocuous.

bilirubin elimination = assay: Bilirubin elimination under in vivo conditions; set-up: species or system rats; details: pre-treated rats; 30 mg./kg. free bilirubin i.v.
Description: When examining the bilirubin elimination under in vivo conditions on rats pre-treated with E 15 or phenobarbital, respectively, and challenged intravenously with a dosage of 30 mg./kg. of free bilirubin, the following biological halving periods were determined (Krueger, H., Higginson, J.: Proc. Soc. Exp. Biol. Med. 107, 43, 1961): […]

central nervous system = type: in vivo, mice and rats
Text: The central nervous activities of the compounds according to the invention were examined on mice and rats with the following methods: electroshock (Swinyard, E. A., Brown, W. C., Goodman, L. S.: J. Pharmacol. Exp. Ther. 106, 319, 1952), metrazol spasm (Everett, G. M., Richards, R. K.: J. Pharmacol. Exp. Ther. 81, 402: 1944), thiosemicarbezide spasm (Da Venzo, J. P. Greig, M. E., Cormin, M. A.: Amer. J. Physiol. 201, 833: 1961), strychnine spasm (Kerley, T. L., Richards, A. G., Begley, R. W., Abreu, B. B. Wesver, L. C.: J. Pharmacol. Exp. Ther. 132, 360: 1961), nicotine spasm (Stone, C. A., Mecklenburg, K. L., Torhans, M. L.: Arch. Int. Pharmacodyn. 117, 419: 1958), rotarod test (Kinnard, W. C., Carr, C. J.: J. Pharmacol. Expt. Ther. 121, 3, 54: 1957), physistigmine lethality preventing effect (Nose, T., Kojima, M.: Europ. J. Pharmacol. 10, 83: 1970), yohimbine potentiation effect (Quinton, R. M.: Brit. J. Pharmacol. 21, 51: 1963), and analgesic activity (Bianchi, G., Franceschini, J.: Brit. J. Pharm. Chemother. 9, 280: 1954). As reference substance, phenobarbital was used. […]

hexobarbital oxidase = assay: Enzyme-inducing potency: in vivo hexobarbital oxidase activity (duration of hexobarbital narcosis); set-up: species or system Female Wistar rats; details: 24 hours before hexobarbital
Description: […] 24 and 48 hours after the administration of the active agent, respectively, the animals were narcotized with 40 mg./kg. i.v. dosage of hexobarbital sodium, and the time elapsed until complete wakening was measured (Noordhock, J.: Eur. J. Pharmacol. 3, 242, 1968). The data were recorded, and the mean values, the standard errors, as well as the percentage increase with respect to the controls were calculated for each group. […] The hexobarbital concentration of the plasma, measured on the instant of wakening, was the same for both the treated and the control animals, thus the increase of narcosis period was not due to a certain central nervous interaction (Jori, A., Bianchatti, A., Presentini, P. E.: Biochem. Pharmacol. 19, 2687, 1970).
The enzyme-inducing potency of the new compounds was determined by several methods. One of these methods was the in vivo measurement of hexobarbital oxidase activity.
The decrease of narcosis period is due to the fact that the new compounds according to the invention accelerate the elimination of hexobarbital, a foreign substance, from the body. When administering the compound to be tested in a single dosage and measuring the duration of hexobarbital narcosis 24 hours after the administration, the following results are obtained: […]

Q: Which results are given for CCC1(c2ccccc2)C(=O)NC(=O)NC1=O [Phenobarbital, reference compound]?
A: Side effects [1]: toxic (sedative and respiration-paralyzing) side effects; Perished animals/tested animals ([2]; 40 mg./kg): 0/10; Perished animals/tested animals ([2]; 80 mg./kg): 0/10; Perished animals/tested animals ([2]; 160 mg./kg): 4/10; Perished animals/tested animals ([2]; 320 mg./kg): 9/10; Perished animals/tested animals ([2]; 640 mg./kg): 10/10; t1/2 (biological halving period of bilirubin) (bilirubin elimination): 13 min; Central nervous effects (central nervous system; in words, in contrast with phenobarbital): hypnotic and respiration paralyzing effects; Central nervous activity (central nervous system; oral 40, 120 and 150 mg./kg., phenobarbital effect even at 40 mg./kg.): strong anticonvulsive muscle-incoordinating and sedative effects; Sleeping period ± standard error (hexobarbital oxidase; 5 mg./kg. single dosage): 20.1 ± 2.0; Sleeping period ± standard error (hexobarbital oxidase; 10 mg./kg. single dosage): 14.3 ± 1.4; Sleeping period ± standard error (hexobarbital oxidase; 20 mg./kg. single dosage): 14.0 ± 1.3; Sleeping period ± standard error (hexobarbital oxidase; 40 mg./kg. single dosage): 12.5 ± 1.2

Reference: patent publication US4094908A, “Alpha-substituted benzhydrol derivatives” (Richter Gedeon Vegyeszeti Gyar Rt., priority 1973, dated 1978)
